Values quoted from earlier work in US7638270B2, “Nucleic acids and corresponding proteins entitled 254P1D6B useful in treatment and detection of cancer” (Agensys, Inc., priority 2003, dated 2009).

Tested on: HLA-DR alleles

- binding to HLA-DR alleles: bind to most HLA-DR alleles
Substance: xKXVAAWTLKAAx: pan-DR-binding epitope peptide (SEQ ID NO: 16); X is cyclohexylalanine, phenylalanine or tyrosine
- stimulation of the response of T helper lymphocytes (regardless of HLA type): stimulate the response of T helper lymphocytes from most individuals
